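Assay format: 96-well plates, 48-hour exposure. TGI is the concentration that stops growth completely.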
Legend:
Assay in all cases: DTP human tumour cell line panel, 48 h
786-0 renal = tested on: 786-0 renal
A498 renal = tested on: A498 renal
A549 NSCLC = tested on: A549 NSCLC
ACHN renal = tested on: ACHN renal
BT-549 breast = tested on: BT-549 breast
CAKI-1 renal = tested on: CAKI-1 renal
COLO 205 colon = tested on: COLO 205 colon
DU-145 prostate = tested on: DU-145 prostate
EKVX NSCLC = tested on: EKVX NSCLC
HCT-116 colon = tested on: HCT-116 colon
HCT-15 colon = tested on: HCT-15 colon
HL-60(TB) leukemia = tested on: HL-60(TB) leukemia
HOP-62 NSCLC = tested on: HOP-62 NSCLC
HOP-92 NSCLC = tested on: HOP-92 NSCLC
HS 578T breast = tested on: HS 578T breast
HT29 colon = tested on: HT29 colon
IGROV1 ovarian = tested on: IGROV1 ovarian
K-562 leukemia = tested on: K-562 leukemia
KM12 colon = tested on: KM12 colon
LOX IMVI melanoma = tested on: LOX IMVI melanoma
M14 melanoma = tested on: M14 melanoma
MALME-3M melanoma = tested on: MALME-3M melanoma
MCF7 breast = tested on: MCF7 breast
MDA-MB-231 breast = tested on: MDA-MB-231 breast
MDA-MB-435 = tested on: MDA-MB-435
MDA-N = tested on: MDA-N
MOLT-4 leukemia = tested on: MOLT-4 leukemia
NCI-H226 lung = tested on: NCI-H226 lung
NCI-H23 lung = tested on: NCI-H23 lung
NCI-H460 lung = tested on: NCI-H460 lung
NCI-H522 lung = tested on: NCI-H522 lung
NCI/ADR-RES ovarian = tested on: NCI/ADR-RES ovarian
OVCAR-3 ovarian = tested on: OVCAR-3 ovarian
OVCAR-4 ovarian = tested on: OVCAR-4 ovarian
OVCAR-5 ovarian = tested on: OVCAR-5 ovarian
OVCAR-8 ovarian = tested on: OVCAR-8 ovarian
PC-3 prostate = tested on: PC-3 prostate
RPMI-8226 leukemia = tested on: RPMI-8226 leukemia
SF-268 CNS = tested on: SF-268 CNS
SF-295 CNS = tested on: SF-295 CNS
SF-539 CNS = tested on: SF-539 CNS
SK-MEL-2 melanoma = tested on: SK-MEL-2 melanoma
SK-MEL-28 melanoma = tested on: SK-MEL-28 melanoma
SK-MEL-5 melanoma = tested on: SK-MEL-5 melanoma
SK-OV-3 ovarian = tested on: SK-OV-3 ovarian
SN12C renal = tested on: SN12C renal
SNB-19 CNS = tested on: SNB-19 CNS
SR leukemia = tested on: SR leukemia
SW-620 colon = tested on: SW-620 colon
T-47D breast = tested on: T-47D breast
TK-10 renal = tested on: TK-10 renal
U251 CNS = tested on: U251 CNS
UACC-257 melanoma = tested on: UACC-257 melanoma
UACC-62 melanoma = tested on: UACC-62 melanoma
UO-31 renal = tested on: UO-31 renal
CCRF-CEM leukemia = tested on: CCRF-CEM leukemia
HCC-2998 colon = tested on: HCC-2998 colon
SNB-75 CNS = tested on: SNB-75 CNS

Structure (SMILES): CN(C)Cc1ccc(-c2cc3onc(-c4ccccc4)c3c(=O)n2C)cc1
- TGI (786-0 renal): 35 µM
- TGI (A498 renal): 56.9 µM
- TGI (A549 NSCLC): 36.9 µM
- TGI (ACHN renal): > 100 µM
- TGI (BT-549 breast): > 100 µM
- TGI (CAKI-1 renal): > 100 µM
- TGI (COLO 205 colon): 41.1 µM
- TGI (DU-145 prostate): 85.3 µM
- TGI (EKVX NSCLC): > 100 µM
- TGI (HCT-116 colon): 30.3 µM
- TGI (HCT-15 colon): 50.2 µM
- TGI (HL-60(TB) leukemia): 4.56 µM
- TGI (HOP-62 NSCLC): 41.3 µM
- TGI (HOP-92 NSCLC): 87.6 µM
- TGI (HS 578T breast): 46.2 µM
- TGI (HT29 colon): 29.8 µM
- TGI (IGROV1 ovarian): > 100 µM
- TGI (K-562 leukemia): 74.2 µM
- TGI (KM12 colon): 43.8 µM
- TGI (LOX IMVI melanoma): 49.8 µM
- TGI (M14 melanoma): 30.7 µM
- TGI (MALME-3M melanoma): 72.5 µM
- TGI (MCF7 breast): > 100 µM
- TGI (MDA-MB-231 breast): > 100 µM
- TGI (MDA-MB-435): 59.8 µM
- TGI (MDA-N): 44.5 µM
- TGI (MOLT-4 leukemia): 49.2 µM
- TGI (NCI-H226 lung): > 100 µM
- TGI (NCI-H23 lung): > 100 µM
- TGI (NCI-H460 lung): 32.3 µM
- TGI (NCI-H522 lung): 39.5 µM
- TGI (NCI/ADR-RES ovarian): > 100 µM
- TGI (OVCAR-3 ovarian): > 100 µM
- TGI (OVCAR-4 ovarian): > 100 µM
- TGI (OVCAR-5 ovarian): > 100 µM
- TGI (OVCAR-8 ovarian): > 100 µM
- TGI (PC-3 prostate): > 100 µM
- TGI (RPMI-8226 leukemia): 54.9 µM
- TGI (SF-268 CNS): > 100 µM
- TGI (SF-295 CNS): 46.5 µM
- TGI (SF-539 CNS): 46.8 µM
- TGI (SK-MEL-2 melanoma): 78.8 µM
- TGI (SK-MEL-28 melanoma): 41.2 µM
- TGI (SK-MEL-5 melanoma): 47.1 µM
- TGI (SK-OV-3 ovarian): > 100 µM
- TGI (SN12C renal): > 100 µM
- TGI (SNB-19 CNS): > 100 µM
- TGI (SR leukemia): 34 µM
- TGI (SW-620 colon): 65.1 µM
- TGI (T-47D breast): 58.4 µM
- TGI (TK-10 renal): 53.1 µM
- TGI (U251 CNS): 64.8 µM
- TGI (UACC-257 melanoma): 35.6 µM
- TGI (UACC-62 melanoma): 75 µM
- TGI (UO-31 renal): 26.6 µM

Structure (SMILES): C#C[C@]1(O)CC[C@H]2[C@@H]3CCC4=C/C(=N/NC(=O)c5cccc6c(=O)c7ccccc7[nH]c56)CCC4[C@H]3CC[C@@]21C (stereo not given in full)
- TGI (786-0 renal): > 100 µM
- TGI (A549 NSCLC): > 100 µM
- TGI (ACHN renal): > 100 µM
- TGI (BT-549 breast): 63.3 µM
- TGI (CAKI-1 renal): > 100 µM
- TGI (CCRF-CEM leukemia): > 100 µM
- TGI (COLO 205 colon): > 100 µM
- TGI (DU-145 prostate): > 100 µM
- TGI (EKVX NSCLC): > 100 µM
- TGI (HCC-2998 colon): > 100 µM
- TGI (HCT-116 colon): > 100 µM
- TGI (HCT-15 colon): > 100 µM
- TGI (HL-60(TB) leukemia): > 100 µM
- TGI (HOP-62 NSCLC): > 100 µM
- TGI (HOP-92 NSCLC): > 100 µM
- TGI (HS 578T breast): > 100 µM
- TGI (HT29 colon): > 100 µM
- TGI (IGROV1 ovarian): > 100 µM
- TGI (K-562 leukemia): > 100 µM
- TGI (KM12 colon): > 100 µM
- TGI (LOX IMVI melanoma): > 100 µM
- TGI (M14 melanoma): > 100 µM
- TGI (MALME-3M melanoma): 68.1 µM
- TGI (MCF7 breast): > 100 µM
- TGI (MDA-MB-231 breast): > 100 µM
- TGI (MDA-MB-435): > 100 µM
- TGI (MDA-N): > 100 µM
- TGI (MOLT-4 leukemia): > 100 µM
- TGI (NCI-H226 lung): > 100 µM
- TGI (NCI-H23 lung): > 100 µM
- TGI (NCI-H522 lung): 86 µM
- TGI (NCI/ADR-RES ovarian): > 100 µM
- TGI (OVCAR-3 ovarian): > 100 µM
- TGI (OVCAR-4 ovarian): > 100 µM
- TGI (OVCAR-5 ovarian): > 100 µM
- TGI (OVCAR-8 ovarian): > 100 µM
- TGI (PC-3 prostate): > 100 µM
- TGI (RPMI-8226 leukemia): > 100 µM
- TGI (SF-268 CNS): > 100 µM
- TGI (SF-295 CNS): > 100 µM
- TGI (SF-539 CNS): > 100 µM
- TGI (SK-MEL-2 melanoma): > 100 µM
- TGI (SK-MEL-5 melanoma): 64.8 µM
- TGI (SK-OV-3 ovarian): > 100 µM
- TGI (SN12C renal): > 100 µM
- TGI (SNB-19 CNS): > 100 µM
- TGI (SNB-75 CNS): > 100 µM
- TGI (SR leukemia): > 100 µM
- TGI (SW-620 colon): > 100 µM
- TGI (T-47D breast): > 100 µM
- TGI (TK-10 renal): > 100 µM
- TGI (U251 CNS): > 100 µM
- TGI (UACC-257 melanoma): > 100 µM
- TGI (UACC-62 melanoma): > 100 µM
- TGI (UO-31 renal): 76.5 µM

From PubChem BioAssay (NCI)
